According to PMC10999543, “Identification of kinase modulators as host-directed therapeutics against intracellular methicillin-resistant Staphylococcus aureus” (Frontiers in Cellular and Infection Microbiology, 2024):
Where two headings read alike, the source gives them in different places.

Key:
intracellular MRSA = format: cell-based, Staphylococcus aureus; details: for %GFP+ rep 1 / z-scoreMRSA+ rep 1: replicate 1; for %GFP+ rep 2 / z-scoreMRSA+ rep 2: replicate 2; for %GFP+ rep 3 / z-scoreMRSA+ rep 3: replicate 3; for z-scoreMRSA+ mean: mean of 3 replicates
Summary of the method: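 HeLa cells infected with GFP-MRSA (MOI ~6.8), gentamicin-cleared, then incubated overnight at 37°C with inhibitors plus 5 µg/ml gentamicin; DMSO as negative control, triplicates. Flow cytometry gave % GFP-positive cells and cell count (viability surrogate); hits by plate z-score (MRSA ≤ -2, HeLa count ≥ -3).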

HeLa cells = assay: Compound screen by flow cytometry: HeLa cell count as surrogate readout of cell viability (z-scoreHeLa); format: cell-based, human; details: for cell count rep 1 / z-scoreHeLa rep 1: replicate 1; for cell count rep 2 / z-scoreHeLa rep 2: replicate 2; for cell count rep 3 / z-scoreHeLa rep 3: replicate 3; for z-scoreHeLa mean: mean of 3 replicates
Summary of the method: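 HeLa cells were infected with GFP-MRSA (mean MOI 6.8 ± 4.6) for 1 h, and extracellular bacteria were killed with 30 µg/ml gentamicin. Cells were then incubated overnight with kinase inhibitors in 5 µg/ml gentamicin, in triplicate against DMSO controls. Flow-cytometric cell count served as a viability surrogate, expressed as a plate z-score.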

[1] = PKIS compound screen raw data, MRSA-infected HeLa cells
[2] = Yes/No: effect without cell death
[3] = compound screen, MRSA-infected HeLa cells
[4] = PKIS compound screen raw data, HeLa cell count
[5] = compound screen, HeLa cell count
[6] = PKIS compounds raw data, MRSA-infected HeLa cells
[7] = PKIS compounds raw data, HeLa cell count
[8] = PKIS compound screen, MRSA-infected HeLa cells
[9] = PKIS compound screen, Yes/No call
[10] = PKIS compound screen, Yes/No call (effect without cell death)
[11] = PKIS compound screen, Yes/No call on z-scoreMRSA+
[12] = PKIS compound screen, HeLa cell count
[13] = PKIS compound screen, Yes/No call on z-scoreHeLa

Row | SMILES | %GFP+ rep 1 (intracellular MRSA; [1]) [%] | %GFP+ rep 2 (intracellular MRSA; [1]) [%] | %GFP+ rep 3 (intracellular MRSA; [1]) [%] | cell count rep 1 (HeLa cells; [4]) | cell count rep 2 (HeLa cells; [4]) | cell count rep 3 (HeLa cells; [4]) | %GFP+ rep 1 (intracellular MRSA; [6]) [%] | %GFP+ rep 2 (intracellular MRSA; [6]) [%] | %GFP+ rep 3 (intracellular MRSA; [6]) [%] | cell count rep 1 (HeLa cells; [7]) | cell count rep 2 (HeLa cells; [7]) | cell count rep 3 (HeLa cells; [7]) | z-scoreMRSA+ mean (intracellular MRSA; [8]) | z-scoreMRSA+ rep 1 (intracellular MRSA; [8]) | z-scoreMRSA+ rep 2 (intracellular MRSA; [8]) | z-scoreMRSA+ rep 3 (intracellular MRSA; [8]) | effect (intracellular MRSA; [9]) | hit (intracellular MRSA; [10]) | effect (intracellular MRSA; [11]) | z-scoreMRSA+ mean (intracellular MRSA; PKIS compound screen) | also measured
1 | Nc1ncc(-c2ccncc2)c2scc(-c3ccc4c(c3)CCN4C(=O)Cc3ccccc3)c12 [GSK2592465A] | 23.8 | 25.0 | 22.8 | 4912 | 4633 | 5392 |  |  |  |  |  |  |  |  |  |  |  |  |  |  | effect (intracellular MRSA; Yes/No call from z-scoreMRSA+): No; hit (intracellular MRSA; [2]): No; z-scoreMRSA+ mean (intracellular MRSA; [3]): 0.14; z-scoreMRSA+ rep 1 (intracellular MRSA; [3]): -0.34; z-scoreMRSA+ rep 2 (intracellular MRSA; [3]): 0.58; z-scoreMRSA+ rep 3 (intracellular MRSA; [3]): 0.18; cell death (HeLa cells; Yes/No call from z-scoreHeLa): No; z-scoreHeLa mean (HeLa cells; [5]): 0.25; z-scoreHeLa rep 1 (HeLa cells; [5]): 0.40; z-scoreHeLa rep 2 (HeLa cells; [5]): 0.26; z-scoreHeLa rep 3 (HeLa cells; [5]): 0.10
2 | Nc1nc(-c2ccc3c(c2)C(=Cc2cc(Br)c(O)c(Br)c2)C(=O)N3)cs1 [GW407323A] |  |  |  |  |  |  | 16.4 | 13.5 | 13.8 | 5658 | 5858 | 9419 |  |  |  |  |  |  |  |  | effect (intracellular MRSA; Yes/No call from z-scoreMRSA+): No; hit (intracellular MRSA; [2]): No; z-scoreMRSA+ mean (intracellular MRSA; [3]): 0.14; z-scoreMRSA+ rep 1 (intracellular MRSA; [3]): 1.03; z-scoreMRSA+ rep 2 (intracellular MRSA; [3]): 0.0015; z-scoreMRSA+ rep 3 (intracellular MRSA; [3]): -0.62; cell death (HeLa cells; Yes/No call from z-scoreHeLa): No; z-scoreHeLa mean (HeLa cells; [5]): 1.06; z-scoreHeLa rep 1 (HeLa cells; [5]): 0.80; z-scoreHeLa rep 2 (HeLa cells; [5]): 1.20; z-scoreHeLa rep 3 (HeLa cells; [5]): 1.18
3 | CC(C)c1nc(-c2cccc(NS(=O)(=O)c3ccccc3)c2)c(-c2ccnc(Nc3ccc4c(c3)CN(C)CC4)n2)s1 [GSK1649598A] | 10.0 | 11.1 | 12.2 | 27349 | 20392 | 19957 | 25.5 | 24.9 | 26.1 | 4018 | 5078 | 4439 | -2.36 | -2.35 | -2.27 | -2.47 | No | No and Yes | Yes | -0.25 | z-scoreMRSA+ rep 1 (intracellular MRSA; PKIS compound screen): -0.30; z-scoreMRSA+ rep 2 (intracellular MRSA; PKIS compound screen): -0.22; z-scoreMRSA+ rep 3 (intracellular MRSA; PKIS compound screen): -0.22; z-scoreHeLa mean (HeLa cells; [12]): -0.37; z-scoreHeLa rep 1 (HeLa cells; [12]): -0.48; z-scoreHeLa rep 2 (HeLa cells; [12]): -0.84; z-scoreHeLa rep 3 (HeLa cells; [12]): 0.20; cell death (HeLa cells; [9]): No; cell death (HeLa cells; [13]): No; z-scoreHeLa mean (HeLa cells; PKIS compound screen): -0.86; z-scoreHeLa rep 1 (HeLa cells; PKIS compound screen): -1.22; z-scoreHeLa rep 2 (HeLa cells; PKIS compound screen): -0.62; z-scoreHeLa rep 3 (HeLa cells; PKIS compound screen): -0.73
4 | c1ccc(Oc2ccc(Nc3ccnc4cc(-c5ccc(CNCCN6CCOCC6)o5)ccc34)cc2)nc1 [GW567145X] | 20.5 | 21.2 | 22.8 | 29321 | 19879 | 15455 | 25.1 | 24.1 | 25.1 | 6078 | 7342 | 5085 | 0.46 | 0.46 | 0.49 | 0.43 | No | No | No | -0.39 | z-scoreMRSA+ rep 1 (intracellular MRSA; PKIS compound screen): -0.38; z-scoreMRSA+ rep 2 (intracellular MRSA; PKIS compound screen): -0.37; z-scoreMRSA+ rep 3 (intracellular MRSA; PKIS compound screen): -0.40; z-scoreHeLa mean (HeLa cells; [12]): -0.58; z-scoreHeLa rep 1 (HeLa cells; [12]): -0.15; z-scoreHeLa rep 2 (HeLa cells; [12]): -0.93; z-scoreHeLa rep 3 (HeLa cells; [12]): -0.68; cell death (HeLa cells; [9]): No; cell death (HeLa cells; [13]): No; z-scoreHeLa mean (HeLa cells; PKIS compound screen): 0.19; z-scoreHeLa rep 1 (HeLa cells; PKIS compound screen): 0.019; z-scoreHeLa rep 2 (HeLa cells; PKIS compound screen): 0.89; z-scoreHeLa rep 3 (HeLa cells; PKIS compound screen): -0.32
5 | c1ccc(-c2cc3ccncc3cc2OC2CCNCC2)cc1 [GSK1122999D] | 16.9 | 18.4 | 20.9 | 28278 | 18056 | 22119 | 29.2 | 28.1 | 31.8 | 8742 | 6353 | 6306 | -0.29 | -0.50 | -0.28 | -0.09 | No | No | No | 0.55 | z-scoreMRSA+ rep 1 (intracellular MRSA; PKIS compound screen): 0.42; z-scoreMRSA+ rep 2 (intracellular MRSA; PKIS compound screen): 0.40; z-scoreMRSA+ rep 3 (intracellular MRSA; PKIS compound screen): 0.84; z-scoreHeLa mean (HeLa cells; [12]): -0.31; z-scoreHeLa rep 1 (HeLa cells; [12]): -0.33; z-scoreHeLa rep 2 (HeLa cells; [12]): -1.24; z-scoreHeLa rep 3 (HeLa cells; [12]): 0.62; cell death (HeLa cells; [9]): No; cell death (HeLa cells; [13]): No; z-scoreHeLa mean (HeLa cells; PKIS compound screen): 0.77; z-scoreHeLa rep 1 (HeLa cells; PKIS compound screen): 1.62; z-scoreHeLa rep 2 (HeLa cells; PKIS compound screen): 0.23; z-scoreHeLa rep 3 (HeLa cells; PKIS compound screen): 0.45
